From patent US20020034725A1, “SENSITIZATION OF CELLS TO RADIATION AND AND CHEMOTHERAPY” (priority 1996, published 2002)

Legend:
H-ras^v12 = test: Western blot of H-ras farnesylation in T24 bladder carcinoma cells; format: cell-based, human; conditions: 5 μM
Description: FIG. 16A is an image of a Western blot depicting changes in farnesylation of H-ras^v12 following treatment of human bladder carcinoma cells with FTI-277. T24 bladder carcinoma cells were treated with 5 μM of FTI-277 for the times indicated (hours). Samples were harvested and cell lysates were prepared for Western blot analysis using anti-H-ras antibody. Untreated control samples harvested at 0 and 30 hours are shown for comparison.
Cells were lysed in culture dishes with 1 x reducing Laemmli sample buffer. Samples were boiled, sheared and clarified by centrifugation at 14,000 rpm in a microfuge before storage at −20° C. Samples containing equal amounts of protein were separated on a 12% SDS polyacrylamide gel and electrophoretically transferred to nitrocellulose membranes. Membranes were blocked for 1-2 hours in PBS containing 0.1% Tween-20 and 5% powdered milk before antibody addition. Membranes were probed with monoclonal pan-ras antibody AB-4 (Oncogene Science, Uniondale, N.Y.) at a concentration of 0.5 μg/ml, or with monoclonal H-ras antibody LA069 (1:5000 dilution; Quality Biotech, Camden, N.J.). Detection of protein was accomplished using the ECL chemiluminescence kit (Amersham, Arlington Heights, Ill.). Images were digitized using an Arcus II scanner, and figures were assembled using Adobe Photoshop 3.0.

[1] = test system: mouse prostate tumor cells transformed with H-ras^v12 and myc; test: Radiation induced apoptosis of mouse prostate tumor cells; format: cell-based; conditions: doses which inhibited ras farnesylation, 10 Gray
Description: FIG. 13B is a graph depicting the effects of the inhibitor, FTI-277, at the concentrations indicated (μM) on radiation induced apoptosis of prostate tumor cells. Cells were treated with FTI-277 for 24 hours before irradiation with 10 Gray. Apoptosis was quantitated 24 hours after irradiation by scoring for changes in nuclear morphology following staining of the cells with propidium iodide. Panel A depicts prostate tumor cells cultured from a primary tumor. Panel B depicts prostate tumor cells cultured from an isolated metastasis derived from the tumor.
3×10^3 cells/well in 24-well plates were allowed to attach for 12 hours and were then treated with medium containing FTI-277 in DMSO or an equivalent volume of DMSO without inhibitor. Twenty four hours after irradiation with 10 Gray using the irradiator described above, both adherent and non-adherent cells were harvested. Cells were stained with propidium iodide (Muschel et al., 1995, Cancer Res. 55:995-998). A minimum of three independent fields of 100 cells were counted for each sample. Scoring of samples was performed in a double blind manner.

[2] = test system: murine prostate tumor cells cultured from a metastic lung nodule; test: Surviving fraction at 2 Gray, murine prostate tumor cells; format: cell-based, mouse; conditions: 5 μM FTI-277
Description: FIG. 14C is a series of graphs depicting the effect of 5 μM FTI-277 and 2 Gray irradiation on murine prostate tumor cells cultured from a metastic lung nodule. Cells were referred at 24 hours following irradiation in order to dilute the concentration of the inhibitor to 0.5 μM. The surviving cell fraction was assessed as described in FIG. 14B. The correlation coefficient for linear regression analysis (r^2) was greater than 0.95 in all cases.

H-ras^v12 CVLL = test: Western blot of prenylation of chimeric H-ras in REF-GG cells; format: cell-based, rat; conditions: up to 10 μM
Excerpt: The oncogene-transfected cells used in this study were all derived from early passage rat embryo fibroblast (REF) by transfection with the pEJ plasmid containing the H-ras gene isolated from the EJ bladder carcinoma. This vector was introduced by calcium phosphate DNA transfer into primary REF, either alone or together with the pMC29 vector containing v-myc. One clone containing both the introduced H-ras gene and the v-myc genes is 3.7 (McKenna et al., 1990, Cancer Res. 50:97-102). 4R and 5R cells were obtained as rare transformants after transfection with the pEJ plasmid alone (McKenna et al., 1993, supra). MR4 cells were immortalized by transfection with an expression vector comprising v-myc linked to a neomycin-resistant selectable marker (McKenna et al., 1991, Radiat. Res. 125:283-287). REF-GG cells were obtained by transforming REF cells with a chimeric H-ras(v12) in which the CAAX motif is CVLL. All cell lines were mycoplasma free.
Cells were lysed in culture dishes with 1 x reducing Laemmli sample buffer. Samples were boiled, sheared and clarified by centrifugation at 14,000 rpm in a microfuge before storage at −20° C. Samples containing equal amounts of protein were separated on a 12% SDS polyacrylamide gel and electrophoretically transferred to nitrocellulose membranes. […]

3.7, 5R and REF-GG cells = test: Morphological alterations of ras transformed REF cells; format: cell-based, rat
Description: FIG. 11A is an image of 3.7 cells that were cultured in medium containing 2.5 μM FTI-277 (right) or DMSO (left) for 48 hours.
FIG. 11B is an image of REF-GG cells that were cultured in medium containing 5 μM FTI-277 (right) or DMSO (left) for 48 hours.

[3] = test system: T24 bladder carcinoma cells; test: Colony formation / surviving fraction at 2 Gray in T24 cells; format: cell-based, human
Description: FIG. 16B is a graph depicting colony formation following FTI-277 treatment and irradiation of human T24 bladder carcinoma cells. Cells were treated for 24 hours with 5 μM of FTI-277 and were harvested and plated at the indicated cell density in medium containing DMSO (left panel) or 5 μM FTI-277 (right panel) and were immediately irradiated. Cultures were re-fed after 24 hours with medium that contained no inhibitor. […] The cells were allowed to grow for two weeks prior to scoring for colony formation. Open squares: unirradiated cells; closed circles: 2 Gray irradiated cells. The surviving fraction of cells was calculated as described in the description of FIG. 14B. The correlation coefficient for linear regression analysis (r^2) was greater than 0.95 in all cases.
In view of the fact that accumulation of unfarnesylated H-ras in T24 cells takes longer, these cells were pretreated for 24 hours prior to irradiation and subsequent assay for clonogenic survival. An additional consideration raised by pretreatment of cells is that FTI-277 and other farnesyltransferase inhibitors can affect the farnesylation of rho proteins involved in cell morphology and thus alter cell adherence. The pretreatment of T24 cells with FTI-277 reduced the ability of these cells to form discrete colonies after replating, resulting in the formation of secondary satellite colonies. […]

H-ras = test: Western blot of H-ras prenylation in SW480 cells; format: cell-based, human; conditions: 48 hours
Description: FIG. 17A is an image of a Western blot depicting inhibition by FTI-277 of K-ras prenylation in human SW480 colon carcinoma cells. SW480 cells were treated with the indicated concentrations of FTI-277 (μM) for 48 hours. Samples were harvested and cell lysates were analyzed by Western blotting using either a H-ras monoclonal antibody (top) or a K-ras monoclonal antibody (bottom). Arrows indicate unfarnesylated ras bands.

## COC(=O)[C@H](CCSC)NC(=O)c1ccc(NC[C@@H](N)CS)cc1-c1ccccc1 [FTI-277]
H-ras^v12
  time after which unfarnesylated H-ras was detectable: 5 h
  time required to achieve 50% of ras in the unfarnesylated form: 24 h
[1]
  radiation-induced apoptosis: significant increase in apoptosis
[2]
  survival after 2 Gray irradiation: 0.36
H-ras^v12 CVLL
  mobility of H-ras-CVLL: no change in the mobility of H-ras-CVLL
3.7, 5R and REF-GG cells; H-ras transformed REF cells (3.7 cells 2.5 μM), 48 hours
  cell morphology: partial reversion of transformation
3.7, 5R and REF-GG cells; REF-GG cells, 5 μM
  cell morphology: did not induce altered cell morphology
[3]; 5 μM, 24 hours pretreatment
  surviving fraction at 2 Gray irradiation: 0.35
[3]; FTI-277 treatment alone
  colony formation without irradiation: did not significantly reduce the fraction of wells giving rise to colonies
H-ras
  lowest concentration with altered migration of H-ras: 2.5 µM
